tested on: gamma secretase cleavage of NotchδE (constitutively active rat Notch1 construct ZEDN1); assay: Notch signaling reporter gene assay (4xwtCBF1 Luciferase co-transfected with NotchδE) for selective inhibitors of gamma secretase; assay type: cell-based; conditions: assay not given, it follows the Notch signaling assay section
Excerpt: Due to the importance of Notch signaling in cell fate determination, and tissue differentiation during both development and in the adult, inhibition of Notch signaling by gamma secretase inhibitors is postulated to be a limiting factor in their therapeutic utility. […] Lindsell, O. Bogler, D. Hayward and G. Weinmaster (1996). “Notch signaling inhibits muscle cell differentiation through a CBF1-independent pathway.” Development 122(12): 3765-73 in combination with the CBF1 repressible Luciferase reporter gene 4xwtCBF1Luc (Hsieh, J. J., T. Henkel, P. Salmon, E. Robey, M. G. Peterson and S. D. Hayward (1996). “Truncated mammalian Notch1 activates CBF1/RBPJk-repressed genes by a mechanism resembling that of Epstein-Barr virus EBNA2. ” Mol Cell Biol 16(3): 952-9).
When 4xwtCBF1 Luciferase is co-transfected with NotchδE (ZEDN1), gamma-secretase cleavage of NotchδE releases the Notch intracellular domain (NICD), which translocates to the nucleus and de-represses CBF1 mediated transcriptional repression, leading to transcription of the Luciferase reporter gene. Luciferase activity is easily assayed in cell extracts using commercially available kits. The activity of the reporter gene is directly correlated with gamma secretase cleavage of NotchδE, and as such, a reduction in Luciferase activity provides a convenient measure of inhibition of gamma secretase cleavage of NotchδE.

SMILES	IC50 [µM]
O=S(=O)(c1ccc(Cl)cc1)N1CCCCC1c1cccnc1 (stereo not shown) [Compound 1, 1-(4-Chloro-benzenesulfonyl)-1,2,3,4,5,6-hexahydro-[2,3′]bipyridinyl]	1 to 10
CC1CC(C)CN(S(=O)(=O)c2ccc(Cl)cc2)C1 (stereo not shown) [Compound 51, 1-(4-Chloro-benzenesulfonyl)-3,5-dimethyl-piperidine]	1 to 10
CC1CCCN(S(=O)(=O)c2ccc(Cl)cc2)C1 (stereo not shown) [Compound 54, 1-(4-Chloro-benzenesulfonyl)-3-methyl-piperidine]	1 to 10
O=S(=O)(c1ccc(Cl)cc1)N1CCC(Br)CC1 [Compound 56, 4-Bromo-1-(4-chloro-benzenesulfonyl)-piperidine]	> 10
CCOC(=O)C1CCCN(S(=O)(=O)c2ccc(Cl)cc2)C1 (stereo not shown) [Compound 65, 1-(4-Chloro-benzenesulfonyl)-piperidine-3-carboxylic acid ethyl ester]	> 10
CC1(c2ccccc2)CCCN(S(=O)(=O)c2ccc(Cl)cc2)C1 (stereo not shown) [Compound 74, 1-(4-Chloro-benzenesulfonyl)-3-methyl-3-phenyl-piperidine]	> 10
CC1CCC(C)N1S(=O)(=O)c1ccc(Cl)cc1 (stereo not shown) [Compound 124, 1-(4-Chloro-benzenesulfonyl)-2,5-dimethyl-pyrrolidine]	1 to 10
O=S(=O)(c1ccc(Cl)cc1)N1CCCN2CCCN=C21 [Compound 138, 1-(4-Chloro-benzenesulfonyl)-1,3,4,6,7,8-hexahydro-2H-pyrimido[1,2-a]pyrimidine]	> 10
CCCCNC(=O)[C@H]1CSC(c2ccc(OC)c(OC)c2)N1S(=O)(=O)c1ccc(Cl)cc1 (stereo partly drawn) [Compound 139, (4S)-N-butyl-3-[(4-chlorophenyl)sulfonyl]-2-(3,4-dimethoxyphenyl)-1,3-thiazolidine-4-carboxamide]	> 10
CC1C=CC(C)N1S(=O)(=O)c1ccc(Cl)cc1 (stereo not shown) [Compound 149, 1-(4-Chloro-benzenesulfonyl)-2,5-dimethyl-2,5-dihydro-1H-pyrrole]	1 to 10

Other lines, results leading:

IC50 [µM]	SMILES
1 to 10	O=C(Nc1ccccc1)C1Cc2ccccc2N1S(=O)(=O)c1ccc(Cl)cc1 (stereo not shown) [Compound 2, 1-(4-Chloro-benzenesulfonyl)-2,3-dihydro-1H-indole-2-carboxylic acid phenylamide]
1 to 10	O=S(=O)(c1ccc(Cl)cc1)N1CCCC2CCCCC21 (stereo not shown) [Compound 9, 1-(4-Chloro-benzenesulfonyl)-decahydro-quinoline]
1 to 10	O=C(NCc1ccccc1)C1Cc2ccccc2N1S(=O)(=O)c1ccc(Cl)cc1 (stereo not shown) [Compound 12, 1-(4-Chloro-benzenesulfonyl)-2,3-dihydro-1H-indole-2-carboxylic acid benzylamide]
1 to 10	CC1CCc2cc(F)ccc2N1S(=O)(=O)c1ccc(Cl)cc1 (stereo not shown) [Compound 13, 1-(4-Chloro-benzenesulfonyl)-6-fluoro-2-methyl-1,2,3,4-tetrahydro-quinoline]
1 to 10	O=S(=O)(c1ccc(Cl)cc1)N1CCCCCC1 [Compound 43, 1-(4-Chloro-benzenesulfonyl)-azepane]
0.1 to 1	C[C@@H]1CCC[C@H](C)N1S(=O)(=O)c1ccc(Cl)cc1 [Compound 45, (2R,6S)-1-[(4-chlorophenyl)sulfonyl]-2,6-dimethylpiperidine]
0.1 to 1	CCC1CCCCN1S(=O)(=O)c1ccc(Cl)cc1 (stereo not shown) [Compound 46, 1-(4-Chloro-benzenesulfonyl)-2-ethyl-piperidine]
0.1 to 1	CC1CCCC(C)N1S(=O)(=O)c1ccc(Cl)cc1 (stereo not shown) [Compound 47, 1-(4-Chloro-benzenesulfonyl)-2,6-dimethyl-piperidine]
1 to 10	CC1CCCCN1S(=O)(=O)c1ccc(Cl)cc1 (stereo not shown) [Compound 48, 1-(4-Chloro-benzenesulfonyl)-2-methyl-piperidine]

— US20060035884A1, “N-cyclic sulfonamido inhibitors of gamma secretase” (Elan Pharmaceuticals, Inc., priority 2004, published 2006)
